According to PubChem BioAssay (NCI):
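Protocol summary: plate cells (96-well), add compound at 5 concentrations, incubate 48 h, interpolate endpoints linearly. At the GI50, growth is halved. At the TGI there is no net growth.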

Key:
Assay in all cases: DTP human tumour cell line panel, 48 h; in the data active = GI50 below about 0.43 µM; inactive = the rest
MALME-3M melanoma = tested on: MALME-3M melanoma
OVCAR-4 ovarian = tested on: OVCAR-4 ovarian
NCI-H460 lung = tested on: NCI-H460 lung
A549 NSCLC = tested on: A549 NSCLC
786-0 renal = tested on: 786-0 renal
SK-MEL-5 melanoma = tested on: SK-MEL-5 melanoma
BT-549 breast = tested on: BT-549 breast
NCI/ADR-RES ovarian = tested on: NCI/ADR-RES ovarian
NCI-H226 lung = tested on: NCI-H226 lung
RPMI-8226 leukemia = tested on: RPMI-8226 leukemia
MOLT-4 leukemia = tested on: MOLT-4 leukemia
UACC-257 melanoma = tested on: UACC-257 melanoma
HOP-92 NSCLC = tested on: HOP-92 NSCLC
MCF7 breast = tested on: MCF7 breast
CCRF-CEM leukemia = tested on: CCRF-CEM leukemia
HS 578T breast = tested on: HS 578T breast
K-562 leukemia = tested on: K-562 leukemia
CAKI-1 renal = tested on: CAKI-1 renal
SR leukemia = tested on: SR leukemia
HT29 colon = tested on: HT29 colon
DU-145 prostate = tested on: DU-145 prostate
IGROV1 ovarian = tested on: IGROV1 ovarian
M14 melanoma = tested on: M14 melanoma
OVCAR-8 ovarian = tested on: OVCAR-8 ovarian
COLO 205 colon = tested on: COLO 205 colon
T-47D breast = tested on: T-47D breast
ACHN renal = tested on: ACHN renal
HCT-15 colon = tested on: HCT-15 colon
SF-539 CNS = tested on: SF-539 CNS
HOP-62 NSCLC = tested on: HOP-62 NSCLC
SF-295 CNS = tested on: SF-295 CNS
NCI-H522 lung = tested on: NCI-H522 lung
MDA-MB-231 breast = tested on: MDA-MB-231 breast
TK-10 renal = tested on: TK-10 renal
SNB-75 CNS = tested on: SNB-75 CNS
LOX IMVI melanoma = tested on: LOX IMVI melanoma
HCC-2998 colon = tested on: HCC-2998 colon
SK-MEL-2 melanoma = tested on: SK-MEL-2 melanoma
MDA-MB-435 = tested on: MDA-MB-435
SN12C renal = tested on: SN12C renal
NCI-H23 lung = tested on: NCI-H23 lung
HCT-116 colon = tested on: HCT-116 colon
UACC-62 melanoma = tested on: UACC-62 melanoma
UO-31 renal = tested on: UO-31 renal
SNB-19 CNS = tested on: SNB-19 CNS
SW-620 colon = tested on: SW-620 colon
PC-3 prostate = tested on: PC-3 prostate
SF-268 CNS = tested on: SF-268 CNS
MDA-MB-468 breast = tested on: MDA-MB-468 breast
A498 renal = tested on: A498 renal
OVCAR-3 ovarian = tested on: OVCAR-3 ovarian
U251 CNS = tested on: U251 CNS
KM12 colon = tested on: KM12 colon
HL-60(TB) leukemia = tested on: HL-60(TB) leukemia
EKVX NSCLC = tested on: EKVX NSCLC
SK-OV-3 ovarian = tested on: SK-OV-3 ovarian

O=C1NC(=O)c2c1c1c3cc(Br)ccc3[nH]c1c1oc3ccc(F)cc3c21
3.52 µM: TGI (HOP-62 NSCLC)
3.53 µM: TGI (SF-539 CNS)
4.06 µM: TGI (NCI-H23 lung)
45.6 µM: TGI (HCC-2998 colon)
4.77 µM: TGI (OVCAR-8 ovarian)
6.17 µM: TGI (SK-MEL-2 melanoma)
3.54 µM: TGI (A498 renal)
5.37 µM: TGI (SK-OV-3 ovarian)
active: GI50 (CCRF-CEM leukemia) 0.2 µM | GI50 (UO-31 renal) 0.358 µM
4.01 µM: TGI (MALME-3M melanoma)
3.15 µM: TGI (IGROV1 ovarian)
4.52 µM: TGI (HOP-92 NSCLC)
5.3 µM: TGI (ACHN renal) | TGI (OVCAR-3 ovarian)
3.87 µM: TGI (U251 CNS)
4.88 µM: TGI (UACC-62 melanoma)
3.32 µM: TGI (NCI-H460 lung) | TGI (MCF7 breast)
4.66 µM: TGI (HS 578T breast)
3.06 µM: TGI (MDA-MB-468 breast)
7.8 µM: TGI (SF-268 CNS)
2.6 µM: TGI (NCI-H226 lung)
> 100 µM: TGI (A549 NSCLC) | TGI (SK-MEL-5 melanoma) | TGI (BT-549 breast) | TGI (NCI/ADR-RES ovarian) | TGI (RPMI-8226 leukemia) | TGI (MOLT-4 leukemia) | TGI (UACC-257 melanoma) | TGI (CCRF-CEM leukemia) | TGI (K-562 leukemia) | TGI (CAKI-1 renal) | TGI (SR leukemia) | TGI (HT29 colon) | TGI (DU-145 prostate) | TGI (M14 melanoma) | TGI (COLO 205 colon) | TGI (HCT-15 colon) | TGI (SF-295 CNS) | TGI (TK-10 renal) | TGI (MDA-MB-435) | TGI (HCT-116 colon) | TGI (UO-31 renal) | TGI (SW-620 colon) | TGI (KM12 colon) | TGI (HL-60(TB) leukemia) | TGI (EKVX NSCLC)
21.9 µM: TGI (786-0 renal)
3.58 µM: TGI (MDA-MB-231 breast)
3.33 µM: TGI (OVCAR-4 ovarian)
3.69 µM: TGI (SN12C renal)
6.04 µM: TGI (SNB-19 CNS)
7.99 µM: TGI (SNB-75 CNS)
4.51 µM: TGI (T-47D breast)
4.99 µM: TGI (PC-3 prostate)
2.77 µM: TGI (LOX IMVI melanoma)
inactive: GI50 (MALME-3M melanoma) 1.42 µM | GI50 (OVCAR-4 ovarian) 1.55 µM | GI50 (NCI-H460 lung) 1.46 µM | GI50 (A549 NSCLC) 6.84 µM | GI50 (786-0 renal) 3.62 µM | GI50 (SK-MEL-5 melanoma) 3.72 µM | GI50 (BT-549 breast) 9.86 µM | GI50 (NCI/ADR-RES ovarian) 3.43 µM | GI50 (NCI-H226 lung) 1.1 µM | GI50 (RPMI-8226 leukemia) 3.71 µM | GI50 (MOLT-4 leukemia) 0.533 µM | GI50 (UACC-257 melanoma) 6.09 µM | GI50 (HOP-92 NSCLC) 1.59 µM | GI50 (MCF7 breast) 0.877 µM | GI50 (HS 578T breast) 1.91 µM | GI50 (K-562 leukemia) 3.66 µM | GI50 (CAKI-1 renal) 2.25 µM | GI50 (SR leukemia) 4.47 µM | GI50 (HT29 colon) 3.59 µM | GI50 (DU-145 prostate) 3.21 µM | GI50 (IGROV1 ovarian) 1.03 µM | GI50 (M14 melanoma) 3.16 µM | GI50 (OVCAR-8 ovarian) 1.67 µM | GI50 (COLO 205 colon) 2.96 µM | GI50 (T-47D breast) 1.24 µM | GI50 (ACHN renal) 1.97 µM | GI50 (HCT-15 colon) 2.93 µM | GI50 (SF-539 CNS) 1.79 µM | GI50 (HOP-62 NSCLC) 1.58 µM | GI50 (SF-295 CNS) 5.95 µM | GI50 (NCI-H522 lung) 1.42 µM | GI50 (MDA-MB-231 breast) 1.57 µM | GI50 (TK-10 renal) 3.47 µM | GI50 (SNB-75 CNS) 2.09 µM | GI50 (LOX IMVI melanoma) 1.43 µM | GI50 (HCC-2998 colon) 3.39 µM | GI50 (SK-MEL-2 melanoma) 2.21 µM | GI50 (MDA-MB-435) 4.24 µM | GI50 (SN12C renal) 1.71 µM | GI50 (NCI-H23 lung) 1.75 µM | GI50 (HCT-116 colon) 3 µM | GI50 (UACC-62 melanoma) 1.39 µM | GI50 (SNB-19 CNS) 2.17 µM | GI50 (SW-620 colon) 2.39 µM | GI50 (PC-3 prostate) 1.69 µM | GI50 (SF-268 CNS) 2.61 µM | GI50 (MDA-MB-468 breast) 1.35 µM | GI50 (A498 renal) 2.02 µM | GI50 (OVCAR-3 ovarian) 2.14 µM | GI50 (U251 CNS) 1.73 µM | GI50 (KM12 colon) 2.87 µM | GI50 (HL-60(TB) leukemia) > 100 µM | GI50 (EKVX NSCLC) 3.99 µM | GI50 (SK-OV-3 ovarian) 2.04 µM
3.31 µM: TGI (NCI-H522 lung)
